For 18 molecules, TGI and GI50 results are on record in PubChem BioAssay (NCI).

Among the test systems are COLO 205 colon; HOP-62 NSCLC; HOP-92 NSCLC; HS 578T breast; IGROV1 ovarian; LOX IMVI melanoma; MALME-3M melanoma; NCI/ADR-RES ovarian; RXF 393 renal; SK-MEL-2 melanoma.
What all share (experiment): growth of human tumour cells (NCI), 48 h

The structures appear in SMILES notation.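 In this assay, cells in 96-well plates receive the compound at five concentrations for 48 hours. Endpoints are linearly interpolated between the surrounding concentrations. GI50 marks 50% less growth. TGI: total growth inhibition.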

Consider `CO[C@H]1C[C@H](O[C@H]2CC[C@]3(C=O)[C@H]4CC[C@]5(C)[C@@H](C6=CC(=O)OC6)CC[C@]5(O)[C@@H]4CC[C@]3(O)C2)O[C@H](C)[C@H]1O`, for which the TGI with COLO 205 colon is 1.83 µM; with HOP-62 NSCLC, 0.135 µM; in the assay on HOP-92 NSCLC, 1.73 µM; in the assay on HS 578T breast, over 31.6 µM; with IGROV1 ovarian, 7.86 µM; in the assay with LOX IMVI melanoma, 8.31 µM. Moreover, the TGI with MALME-3M melanoma stood at 2.86 µM; with NCI/ADR-RES ovarian, 2.3 µM; in the assay on RXF 393 renal it was 0.189 µM; in the assay with SK-MEL-2 melanoma it was 2.04 µM.

In the case of `CN(C)C(=S)Oc1ccc2ccc(=O)oc2c1`, the TGI in the assay on COLO 205 colon, in the assay with HOP-62 NSCLC, in the assay on HOP-92 NSCLC, in the assay with HS 578T breast, in the assay on IGROV1 ovarian and in the assay on LOX IMVI melanoma was over 100 µM throughout. The TGI in the assay with MALME-3M melanoma, in the assay with NCI/ADR-RES ovarian, in the assay on RXF 393 renal and with SK-MEL-2 melanoma was over 100 µM each time.

For `NC1=NCC(CN2CCCC2)O1` (stereo not given), the TGI with COLO 205 colon, in the assay with HOP-62 NSCLC, in the assay on HOP-92 NSCLC, in the assay on HS 578T breast, in the assay with IGROV1 ovarian and with LOX IMVI melanoma was over 100 µM in each case. The TGI with MALME-3M melanoma, with NCI/ADR-RES ovarian, in the assay with RXF 393 renal and in the assay on SK-MEL-2 melanoma was over 100 µM in each case.

Turning to `O=C(Nc1cccc(-n2cc(-c3ccncc3)c(-c3ccc(O)c(Cl)c3)n2)c1)c1cccc(C(F)(F)F)c1`, the GI50 in the assay on COLO 205 colon was 13 µM; in the assay on HOP-62 NSCLC it was 8.86 µM; with HOP-92 NSCLC it was 0.434 µM; with HS 578T breast, 2.26 µM; in the assay with IGROV1 ovarian it was 9.88 µM; in the assay on LOX IMVI melanoma, 2.35 µM. The GI50 in the assay on MALME-3M melanoma was 5.59 µM; in the assay with NCI/ADR-RES ovarian, 4.09 µM; with RXF 393 renal it was 1.1 µM; in the assay on SK-MEL-2 melanoma, 4.54 µM. Also, the TGI in the assay on COLO 205 colon was 72.9 µM; in the assay with HOP-62 NSCLC it was over 100 µM; in the assay on HOP-92 NSCLC, 4.11 µM; in the assay on HS 578T breast, over 100 µM; with IGROV1 ovarian, over 100 µM; with LOX IMVI melanoma it was over 100 µM. In addition, the TGI is over 100 µM with MALME-3M melanoma, over 100 µM with NCI/ADR-RES ovarian, 5.64 µM with RXF 393 renal and 38.1 µM in the assay with SK-MEL-2 melanoma.

For `CCOC(=O)C(=O)C(=O)NN(C)C1=NCCN1`, the TGI in the assay on COLO 205 colon, in the assay with HOP-62 NSCLC, in the assay on HOP-92 NSCLC, in the assay on HS 578T breast, with IGROV1 ovarian and with LOX IMVI melanoma was over 100 µM each time. The TGI with MALME-3M melanoma, in the assay with NCI/ADR-RES ovarian, with RXF 393 renal and in the assay with SK-MEL-2 melanoma was over 100 µM throughout.

On to `O=C1CC(n2cccc2)c2c(Br)sc(Br)c21` (stereo not given), for which the TGI in the assay with COLO 205 colon was 30.7 µM; with HOP-62 NSCLC, 53.4 µM; in the assay with HOP-92 NSCLC it was 33.1 µM; in the assay on HS 578T breast it was over 72.3 µM; in the assay on IGROV1 ovarian, 32.7 µM; with LOX IMVI melanoma, 21.7 µM. Also, the TGI is 38 µM with MALME-3M melanoma, 69.6 µM in the assay on NCI/ADR-RES ovarian, 43.4 µM with RXF 393 renal and 29.1 µM with SK-MEL-2 melanoma.

For the molecule `Nc1nc(Cl)cc(NCC2(O)CCCC2)n1`, the TGI with COLO 205 colon, in the assay on HOP-62 NSCLC, in the assay on HOP-92 NSCLC, in the assay on HS 578T breast, in the assay on IGROV1 ovarian and in the assay with LOX IMVI melanoma was over 100 µM in each case. The TGI with MALME-3M melanoma, with NCI/ADR-RES ovarian, with RXF 393 renal and in the assay with SK-MEL-2 melanoma was over 100 µM each time.

Consider `c1ccc(-c2nnn(CCN3CCCCC3)n2)cc1`, for which the TGI with COLO 205 colon, with HOP-62 NSCLC, with HOP-92 NSCLC, in the assay on HS 578T breast, in the assay with IGROV1 ovarian and in the assay on LOX IMVI melanoma was over 100 µM each time. Moreover, the TGI with MALME-3M melanoma, in the assay with NCI/ADR-RES ovarian, with RXF 393 renal and with SK-MEL-2 melanoma was over 100 µM in each case.

For `O=[N+]([O-])c1cccnc1-n1cnc2ccccc21`, the TGI with COLO 205 colon, in the assay on HOP-62 NSCLC, in the assay on HOP-92 NSCLC, with HS 578T breast, with IGROV1 ovarian and in the assay on LOX IMVI melanoma was over 100 µM in each case. Besides, the TGI with MALME-3M melanoma, in the assay on NCI/ADR-RES ovarian, in the assay on RXF 393 renal and in the assay with SK-MEL-2 melanoma was over 100 µM each time.

Turning to `COC(=O)c1c(C)nc(C)c(NO)c1-c1ccccc1C(F)(F)F`, the TGI was 70.2 µM with COLO 205 colon; over 100 µM in the assay with HOP-62 NSCLC; 29 µM in the assay with HOP-92 NSCLC; over 100 µM in the assay on HS 578T breast; 35.6 µM in the assay on IGROV1 ovarian; over 100 µM in the assay on LOX IMVI melanoma. The TGI in the assay on MALME-3M melanoma was 32.8 µM; with NCI/ADR-RES ovarian, 38.4 µM; in the assay with RXF 393 renal it was 32 µM; in the assay on SK-MEL-2 melanoma, over 100 µM.

With `CCOC(=O)C1CCCCN1CCc1c[nH]c2ccccc12` (stereo not given), the TGI in the assay on COLO 205 colon, in the assay on HOP-62 NSCLC, with HOP-92 NSCLC, in the assay with HS 578T breast, with IGROV1 ovarian and in the assay on LOX IMVI melanoma was over 100 µM throughout. The TGI in the assay on MALME-3M melanoma, in the assay with NCI/ADR-RES ovarian, with RXF 393 renal and with SK-MEL-2 melanoma was over 100 µM throughout.

Regarding `O=[N+]([O-])c1ccc(C(Nc2ccccc2)c2ccc3cccnc3c2O)cc1` (stereo not given), the TGI in the assay on COLO 205 colon is 45.6 µM; in the assay on HOP-62 NSCLC, over 100 µM; in the assay with HOP-92 NSCLC, 72.9 µM; in the assay with HS 578T breast, over 71.7 µM; in the assay with IGROV1 ovarian, over 100 µM; with LOX IMVI melanoma, 61 µM. For the same molecule, the TGI in the assay on MALME-3M melanoma is over 65.2 µM; in the assay on NCI/ADR-RES ovarian it was over 69.3 µM; with RXF 393 renal, 24.6 µM; in the assay with SK-MEL-2 melanoma it was over 100 µM.

Turning to `NC(=O)Cc1nc2c(=O)[nH]cnc2n1C1OC(CO)C(O)C1O` (stereo not given), the TGI in the assay with COLO 205 colon, in the assay with HOP-62 NSCLC, with HOP-92 NSCLC, in the assay with HS 578T breast, in the assay with IGROV1 ovarian and with LOX IMVI melanoma was over 100 µM in each case. Also, the TGI with MALME-3M melanoma, in the assay on NCI/ADR-RES ovarian, in the assay with RXF 393 renal and in the assay with SK-MEL-2 melanoma was over 100 µM in each case.

`Cc1ccc(-c2n[nH]c(=O)n2/N=C\c2ccccc2)cc1`: the TGI with COLO 205 colon was over 100 µM; in the assay with HOP-62 NSCLC, 62.1 µM; in the assay on HOP-92 NSCLC, 66.4 µM; in the assay on HS 578T breast, 81.3 µM; with IGROV1 ovarian it was over 100 µM; in the assay with LOX IMVI melanoma, over 100 µM. Also, the TGI is over 100 µM in the assay with MALME-3M melanoma, over 100 µM in the assay with NCI/ADR-RES ovarian, over 81.5 µM in the assay with RXF 393 renal and 99.8 µM in the assay with SK-MEL-2 melanoma.

Consider `CCN(CC)c1ccc2cc(-c3nc4ccccc4c(=O)[nH]3)c(=N)oc2c1`, for which the TGI in the assay with COLO 205 colon, in the assay on HOP-62 NSCLC, in the assay on HOP-92 NSCLC, in the assay on HS 578T breast, with IGROV1 ovarian and in the assay on LOX IMVI melanoma was over 100 µM in each case. In addition, the TGI in the assay on MALME-3M melanoma, in the assay on NCI/ADR-RES ovarian, with RXF 393 renal and in the assay with SK-MEL-2 melanoma was over 100 µM in each case.

In the case of `O=c1cc(NCc2ccncc2)[nH]c(=O)[nH]1`, the TGI in the assay on COLO 205 colon, with HOP-62 NSCLC, with HOP-92 NSCLC, in the assay on HS 578T breast, in the assay with IGROV1 ovarian and in the assay on LOX IMVI melanoma was over 100 µM throughout. The TGI with MALME-3M melanoma, with NCI/ADR-RES ovarian, in the assay with RXF 393 renal and with SK-MEL-2 melanoma was over 100 µM throughout.

As for `NCCOCC(N)C(=O)O` (stereo not given), the TGI in the assay on COLO 205 colon, in the assay on HOP-62 NSCLC, in the assay on HOP-92 NSCLC, in the assay on HS 578T breast, with IGROV1 ovarian and with LOX IMVI melanoma was over 100 µM each time. In addition, the TGI in the assay on MALME-3M melanoma, in the assay with NCI/ADR-RES ovarian, in the assay on RXF 393 renal and with SK-MEL-2 melanoma was over 100 µM throughout.

Consider `Cc1cc2c(c(=O)n1C)SCC2`, for which the TGI in the assay on COLO 205 colon, with HOP-62 NSCLC, in the assay on HOP-92 NSCLC, with HS 578T breast, in the assay with IGROV1 ovarian and in the assay with LOX IMVI melanoma was over 100 µM throughout. Besides, the TGI in the assay with MALME-3M melanoma, in the assay with NCI/ADR-RES ovarian, in the assay on RXF 393 renal and in the assay with SK-MEL-2 melanoma was over 100 µM each time.
